# Experiments:
# α-D-glucosidase = assay: Glycosidase inhibition: α-D-glucosidase, Bacillus; assay type: biochemical, Bacillus stearothermophilus; conditions: 1 mg/ml
# Summary of the method: (§1)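 Screening used 3.57 mM (final) p-nitrophenyl substrates in McIlvaine buffer at each enzyme's pH optimum, 20° C, with endpoint reading at 405 nm.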
# β-D-glucosidase = assay: Glycosidase inhibition: β-D-glucosidase, almond; assay type: biochemical, Almonds (Prunus sp.)
# Summary of the method: as §1
# α-D-galactosidase = target: T1, α-D-galactosidase (Coffea arabica, UniProt Q42656); assay: Glycosidase inhibition: α-D-galactosidase; assay type: biochemical, Green coffee beans (Coffea sp.); conditions: read-out: % inhibition, galactosidase
# T1 construct: purchased Sigma
# Description: All enzymes were purchased from Sigma, as were the appropriate p-nitrophenyl substrates. Assays were carried out in microtitre plates. Enzymes were assayed in 0.1M citric acid/0.2M di-sodium hydrogen phosphate (McIlvaine) buffers at the optimum pH for the enzyme. All assays were carried out at 20° C. For screening assays the incubation assay consisted of 10 μl of enzyme solution, 10 μl of inhibitor solution (made up in water) and 50 μl of the appropriate 5 mM p-nitrophenyl substrate (3.57 mM final conc.) made up in McIlvaine buffer at the optimum pH for the enzyme.
# The reactions were stopped with 0.4M glycine (pH 10.4) during the exponential phase of the reaction, which was determined at the beginning of the assay using blanks with water, which were incubated for a range of time periods to measure the reaction rate using 5 mM substrate solution. Endpoint absorbances were read at 405 nm with a Biorad microtitre plate reader (Benchmark). Water was substituted for the inhibitors in the blanks.
# Naringinase = assay: Glycosidase inhibition: Naringinase; assay type: biochemical, Penecillium decumbens; conditions: 1 mg/ml
# Summary of the method: as §1
# [1] = system: N-acetyl-β-D-glucosaminidase; assay: Glycosidase inhibition: N-acetyl-β-D-glucosaminidase; assay type: biochemical, Bovine; conditions: 1 mg/ml
# Summary of the method: as §1
# [2] = target: rabbit gut mucosa α-D-glucosidase; assay: Inhibition of rabbit gut mucosa α-D-glucosidase; assay type: biochemical
# [3] = target: T2, rabbit small intestine sucrase (Oryctolagus cuniculus, UniProt P07768); assay: Inhibition of rabbit small intestine sucrase; assay type: biochemical; conditions: 700 μM
# T2 construct: from tissue; host or cells: rabbit small intestine
# B16-F10 tumour cells = assay: Control of lung metastasis in mice (B16-F10); assay type: in vivo, C57/bl6 mice; conditions: 50 mg/kg s/c on days 2 and 4; lungs on day 14
# Description: Mice (C57/bl6 under i/p ketamine anaesthesia) were challenged i/v (tail vein) with 5×10^4 B16-F10 tumour cells in a final volume of 100 μl per mouse on day 0. Test compounds (50 mg/kg in 200 μl sterile non-pyrogenic saline) were administered sic (right flank) on days 2 and 4. On day 14 the mice were sacrifices and the lungs dissected and stained in Indian ink solution (150 ml bidistilled water, 30 ml India Ink, 4 drops NH4OH) for 10 minutes then fixed for at least 24 hr in Fakete's solution (90 ml 37% formaldehyde, 900 ml 70% EtOH and 45 ml glacial acetic acid). The metastases in the stained and fixed lungs could then be visualized, counted and photographed.
# MCF-7 cells = assay: Effect on glycosylation of breast cancer cells (N-glycan HPLC); assay type: cell-based; conditions: 0.75 mM, 62 and 86 hour time points
# Description: MCF-7 cells (European Collection of Cell Cultures Ref. 86012803) were taken from liquid nitrogen stock, thawed at room temperature and transferred to 10 ml Dulbeccos Modified Eagle's Medium with Hams F12, 15 mM Hepes and L-glutamine (DMEM: Cambrex Cat. No. BE12-719F) supplemented with 10% v/v foetal calf serum (FCS: BioWest Labs Cat. No. S02755, Lot. No. S1800). The FCS was pre-filtered through a 0.2 μm sterile filter.
# The cells were then centrifuged at 1,500 rpm in a Centaur bench-top centrifuge and the supernatant removed. The cells were reconstituted in fresh media and seeded into two T75 cm^3 Nunclon tissue culture flasks and allowed to settle overnight at 37° C. in a 5% CO2 incubator. The flasks were wrapped in cling film to prevent cross-contamination and the following day the media was changed to include the antibiotics penicillin and streptomycin as a precautionary measure against infection (at concentrations of 1 mg/cm^3 and 5 mg/cm^3, respectively). […]
# The cells were harvested using a non-enzymatic method. At each of the time points the cells were viewed under the inverted light microscope and the morphology evaluated. […] The number of cells was then counted in a haemocytometer and cell viability evaluated by mixing 0.1 cm^3 of each cell suspension with a drop of trypan blue solution. […]
# Evaluated using the BioRad protein assay according to the manufacturer's instructions. […]
# B16G/F10 melanoma cells = assay: B16/F10 melanoma lung colonies in mice; assay type: in vivo, C57BL/6 mice; conditions: for Colony Count: Day 21, mean ± s.e.m.; for % Reduction: versus vehicle
# Description: There were 5 treatment groups in the study, with 6 mice arbitrarily allocated to each group. The treatment groups were as follows:
# The dose volume was the daily intake for all animals. Test substances were administered to mice in Groups 2, 3, 4 and 5, as solutions in sterile water for 41 h 32 min prior to tumour cell injection (Day 0 is the day of tumour cell injection).
# Mice were injected intravenously, via a tail vein, with 0.1 ml of a suspension of B16G/F10 melanoma cells (approximately 1×10^5 cells/mouse) on Day 0.
# All dosing solutions were prepared on the first day of dosing (Day −2) and were kept at room temperature.
# Mice: Female C57BL/6 mice were supplied and delivered by Charles River UK Limited. The animals were approximately 6-8 weeks of age on arrival. The animals were acclimatized for 29 days prior to the start of the study, and the body weights at the start of dosing were in the range 18-23 g. During the study, the animals were housed in groups of up to 6 in pediatric filter-topped cages with sawdust bedding (autoclaved for sterility). The room and cages were cleaned at regular intervals each week to maintain hygiene. The mice were fed an expanded rodent diet of RM1(E) SQC (batch number 3822; Special Diets Services, Witham, UK) ad libitum and allowed access to sterilized water (N.V. Nutricia, Zoetermeer, The Netherlands). For Groups 2, 3, 4 and 5, the drinking water also contained the appropriate level of test substance for the duration of the dosing period. […] During the acclimatization and study period the temperature range in the rooms was 18-22° C. and the humidity range was 44-79%.
# Tumour challenge: B18F10 murine tumour cells (Shrayer D, Bogaars H. Hearing V. J. Maizel A. & Wanebo H. Further characterization of a clinically relevant model of melanoma metastasis and an effective vaccine. Cancer Immunology, Immunotherapy 1995: 40; 277-282) were harvested from sub-confluent cultures growing in vitro, using minimum trypsination. They were washed in sterile phosphate buffered saline (PBS) and the number of viable cells determined. Cells were resuspended in sterile PBS at a concentration of […]. The mice were intravenously injected, via a tail vein, with 0.1 ml of cell suspension (i.e. approximately 1×10^5 cells/mouse) on Day 0. The mice were examined daily for signs of laboured breathing or distress due to extensive metastatic disease. Mice were exposed to the appropriate test substance for 41 h 32 min prior to tumour cell injection (from Day −2 to Day 0). Following tumour cell implant, the test substances were removed, and animals in all groups received drinking water alone for the remainder of the study.
# Sampling and analysis: The animals were terminated on Day 21 (21 days after injection of the tumour cells). Blood samples were taken from 3 mice from each group on the day of termination. Animals were anaesthetized with carbon dioxide and blood samples of maximal volume taken by cardiac puncture and collected in plain tubes. Samples were left to clot at room temperature for a minimum of 1 h prior to serum removal, Serum samples were stored at approximately −70° C. prior to analysis. Immediately after performing the bleeds, the spleens were removed from the 3 selected mice. The spleens from these mice were pooled in a petri dish with approximately 3-5 ml of RPMI 1640 tissue culture medium (batch number 3092202; Invitrogen, Paisley, UK) containing 0.52% penicillin/streptomycin (Pen/Strep; batch number 44K2412; Sigma Aldrich, Poole, UK) prior to splenocyte isolation. The spleens from each group were placed in a glass homogeniser with an additional 10-15 ml of medium and homogenised until opaque. The suspension was then placed in a 50 ml centrifuge tube. On occasions when there was significant cell debris, this was allowed to settle before removing the suspension and placing in a fresh tube. The homogenate was then centrifuged at approximately 200×‘g’ for 5 min at approximately 4° C.
# T2 sequence (P07768 1008-1827 limits assumed): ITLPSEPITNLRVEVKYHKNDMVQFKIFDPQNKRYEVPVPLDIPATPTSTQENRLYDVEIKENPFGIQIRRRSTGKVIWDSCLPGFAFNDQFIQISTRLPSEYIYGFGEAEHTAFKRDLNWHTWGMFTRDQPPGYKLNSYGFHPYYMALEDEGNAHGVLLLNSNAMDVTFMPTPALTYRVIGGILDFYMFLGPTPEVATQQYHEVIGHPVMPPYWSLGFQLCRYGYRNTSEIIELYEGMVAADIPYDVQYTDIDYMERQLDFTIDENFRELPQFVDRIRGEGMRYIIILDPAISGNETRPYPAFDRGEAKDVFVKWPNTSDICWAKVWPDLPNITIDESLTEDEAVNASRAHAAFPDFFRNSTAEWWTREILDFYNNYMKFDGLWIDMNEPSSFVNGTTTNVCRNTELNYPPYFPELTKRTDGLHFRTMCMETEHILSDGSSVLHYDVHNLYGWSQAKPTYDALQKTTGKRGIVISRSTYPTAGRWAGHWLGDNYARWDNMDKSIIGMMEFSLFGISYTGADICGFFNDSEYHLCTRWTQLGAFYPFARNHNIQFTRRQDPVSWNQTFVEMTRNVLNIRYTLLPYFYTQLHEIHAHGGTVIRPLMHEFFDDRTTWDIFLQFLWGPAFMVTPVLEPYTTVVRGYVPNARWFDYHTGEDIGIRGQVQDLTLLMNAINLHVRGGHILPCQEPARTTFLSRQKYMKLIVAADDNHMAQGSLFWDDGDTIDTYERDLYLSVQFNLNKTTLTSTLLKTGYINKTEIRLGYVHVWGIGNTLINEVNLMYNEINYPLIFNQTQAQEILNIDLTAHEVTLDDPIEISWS
# T2 sequence (P07768 2-1007 partner limits assumed): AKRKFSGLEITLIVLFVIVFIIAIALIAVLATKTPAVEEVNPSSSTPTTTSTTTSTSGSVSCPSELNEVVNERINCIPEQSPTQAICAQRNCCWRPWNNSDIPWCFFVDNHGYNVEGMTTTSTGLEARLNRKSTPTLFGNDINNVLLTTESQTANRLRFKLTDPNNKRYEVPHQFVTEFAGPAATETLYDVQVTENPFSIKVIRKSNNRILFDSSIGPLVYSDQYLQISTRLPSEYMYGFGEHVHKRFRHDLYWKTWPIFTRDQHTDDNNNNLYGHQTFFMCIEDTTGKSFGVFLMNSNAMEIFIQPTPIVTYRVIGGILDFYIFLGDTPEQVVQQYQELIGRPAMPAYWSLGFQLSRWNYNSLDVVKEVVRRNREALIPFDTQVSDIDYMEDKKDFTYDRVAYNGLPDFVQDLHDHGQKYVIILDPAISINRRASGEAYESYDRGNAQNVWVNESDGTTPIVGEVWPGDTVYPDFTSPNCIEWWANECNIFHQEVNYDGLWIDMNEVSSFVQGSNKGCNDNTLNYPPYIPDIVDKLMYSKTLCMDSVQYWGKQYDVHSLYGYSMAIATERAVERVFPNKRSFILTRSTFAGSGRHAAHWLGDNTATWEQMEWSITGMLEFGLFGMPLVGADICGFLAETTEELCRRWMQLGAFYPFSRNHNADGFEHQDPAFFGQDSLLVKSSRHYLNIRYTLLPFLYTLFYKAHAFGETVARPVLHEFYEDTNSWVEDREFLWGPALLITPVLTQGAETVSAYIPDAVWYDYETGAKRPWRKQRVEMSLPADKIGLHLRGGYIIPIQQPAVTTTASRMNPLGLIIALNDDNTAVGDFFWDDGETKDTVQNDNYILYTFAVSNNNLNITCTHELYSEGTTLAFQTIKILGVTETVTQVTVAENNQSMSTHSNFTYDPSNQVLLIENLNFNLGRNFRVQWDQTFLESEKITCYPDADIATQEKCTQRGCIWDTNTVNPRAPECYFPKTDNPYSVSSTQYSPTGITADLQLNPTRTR
# T1 sequence (Q42656 16-378): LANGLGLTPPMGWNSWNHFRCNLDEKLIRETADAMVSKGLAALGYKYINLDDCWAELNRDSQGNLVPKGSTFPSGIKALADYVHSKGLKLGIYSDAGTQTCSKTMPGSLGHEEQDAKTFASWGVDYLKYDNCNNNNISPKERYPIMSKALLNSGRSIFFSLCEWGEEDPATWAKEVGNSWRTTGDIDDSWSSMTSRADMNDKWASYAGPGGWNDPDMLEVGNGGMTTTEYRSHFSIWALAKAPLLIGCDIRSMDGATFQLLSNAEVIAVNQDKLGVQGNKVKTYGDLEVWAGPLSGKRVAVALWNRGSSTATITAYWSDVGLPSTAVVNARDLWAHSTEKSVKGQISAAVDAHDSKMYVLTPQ
compound,measurement,setting,value
OC[C@@H]1[C@@H](O)[C@H](O)[C@H]2[C@H](O)[C@@H](O)CN21 [casuarine (8)],"% inhibition, gluc (Bacillus)",α-D-glucosidase,86%
same,inhibition of almond β-D-glucosidase,β-D-glucosidase; 800 μM,not being inhibitory
same,"% inhibition, glucosidase",β-D-glucosidase; 1 mg/ml,0%
same,inhibition at 1000 µg/mL,α-D-galactosidase,4%
same,"% inhibition, Naringinase",Naringinase,−2%
same,"% inhibition, N-acetyl-β-gluc",[1],14%
same,IC50,[2],210 µM
same,inhibition of rabbit small intestine sucrase,[3],inhibited
same,Metastatic morphology,B16-F10 tumour cells,Metastasis restricted to apical tip of lung
same,glycan synthesis and/or N-linked glycosylation in breast cancer cells,MCF-7 cells,can inhibit glycan synthesis and/or N-linked glycosylation
same,Colony Count,B16G/F10 melanoma cells; 0.03 μg/ml in drinking water before tumour cell injection,17.00 ± 6.97
same,% Reduction,B16G/F10 melanoma cells; 0.03 μg/ml in drinking water,76%
same,Colony Count,B16G/F10 melanoma cells; 3 μg/ml in drinking water before tumour cell injection,35.40 ± 7.47
same,% Reduction,B16G/F10 melanoma cells; 3 μg/ml in drinking water,49%
same,Colony Count,B16G/F10 melanoma cells; 0.3 mg/ml in drinking water before tumour cell injection,38.50 ± 11.49
same,% Reduction,B16G/F10 melanoma cells; 0.3 mg/ml in drinking water,45%
